For 29 molecules, IC50 results are on record in the Kinase Knowledgebase extract (Sharma et al. 2016).

pIC50: −log10 of the molar value.

For one assay, the target named is PIK3CB (Human) (UniProt P42338). Briefly: Assessment of PIK3CB Kinase Activity.
The target of another assay is PIK3CD (Human) (UniProt O00329). The assay can be described thus: Assessment of PIK3CD Kinase Activity.
The next assay concerns the target PIK3CA (human) (UniProt P42336). Briefly: Assessment of PIK3CA Kinase Activity.
Another assay has as its target PIK3CG (human) (UniProt P48736). Briefly: Assessment of PIK3CG Kinase Activity.

Chain of PIK3CB (Human) (P42338 whole entry, looked up): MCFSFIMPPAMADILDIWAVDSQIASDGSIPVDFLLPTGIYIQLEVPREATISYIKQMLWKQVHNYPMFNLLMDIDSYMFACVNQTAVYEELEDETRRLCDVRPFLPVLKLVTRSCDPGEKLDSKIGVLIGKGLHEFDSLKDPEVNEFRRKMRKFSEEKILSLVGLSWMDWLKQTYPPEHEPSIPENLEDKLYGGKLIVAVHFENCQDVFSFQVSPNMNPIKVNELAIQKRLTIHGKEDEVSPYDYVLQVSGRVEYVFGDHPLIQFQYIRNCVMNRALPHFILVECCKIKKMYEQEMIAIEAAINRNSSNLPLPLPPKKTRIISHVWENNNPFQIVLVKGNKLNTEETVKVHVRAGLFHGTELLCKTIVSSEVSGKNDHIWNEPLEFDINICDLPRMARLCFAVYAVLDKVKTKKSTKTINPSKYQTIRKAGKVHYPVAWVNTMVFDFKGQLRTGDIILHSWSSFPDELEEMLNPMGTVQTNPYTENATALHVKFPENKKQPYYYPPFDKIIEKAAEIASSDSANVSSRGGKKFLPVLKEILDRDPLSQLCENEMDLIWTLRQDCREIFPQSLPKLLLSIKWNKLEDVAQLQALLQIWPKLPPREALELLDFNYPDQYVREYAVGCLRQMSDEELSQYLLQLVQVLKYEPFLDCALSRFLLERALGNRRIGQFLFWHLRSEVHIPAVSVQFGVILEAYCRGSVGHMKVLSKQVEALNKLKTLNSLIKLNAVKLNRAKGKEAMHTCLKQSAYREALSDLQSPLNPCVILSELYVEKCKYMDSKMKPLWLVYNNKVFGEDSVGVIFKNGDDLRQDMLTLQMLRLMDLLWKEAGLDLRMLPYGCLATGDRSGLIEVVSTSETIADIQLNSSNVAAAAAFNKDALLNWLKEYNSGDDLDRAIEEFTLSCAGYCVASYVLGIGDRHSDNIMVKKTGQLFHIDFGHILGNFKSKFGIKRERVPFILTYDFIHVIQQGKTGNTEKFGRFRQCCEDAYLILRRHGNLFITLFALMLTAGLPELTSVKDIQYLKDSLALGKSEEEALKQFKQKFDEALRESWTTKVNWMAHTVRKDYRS
Chain of PIK3CD (Human) (O00329 whole entry, looked up): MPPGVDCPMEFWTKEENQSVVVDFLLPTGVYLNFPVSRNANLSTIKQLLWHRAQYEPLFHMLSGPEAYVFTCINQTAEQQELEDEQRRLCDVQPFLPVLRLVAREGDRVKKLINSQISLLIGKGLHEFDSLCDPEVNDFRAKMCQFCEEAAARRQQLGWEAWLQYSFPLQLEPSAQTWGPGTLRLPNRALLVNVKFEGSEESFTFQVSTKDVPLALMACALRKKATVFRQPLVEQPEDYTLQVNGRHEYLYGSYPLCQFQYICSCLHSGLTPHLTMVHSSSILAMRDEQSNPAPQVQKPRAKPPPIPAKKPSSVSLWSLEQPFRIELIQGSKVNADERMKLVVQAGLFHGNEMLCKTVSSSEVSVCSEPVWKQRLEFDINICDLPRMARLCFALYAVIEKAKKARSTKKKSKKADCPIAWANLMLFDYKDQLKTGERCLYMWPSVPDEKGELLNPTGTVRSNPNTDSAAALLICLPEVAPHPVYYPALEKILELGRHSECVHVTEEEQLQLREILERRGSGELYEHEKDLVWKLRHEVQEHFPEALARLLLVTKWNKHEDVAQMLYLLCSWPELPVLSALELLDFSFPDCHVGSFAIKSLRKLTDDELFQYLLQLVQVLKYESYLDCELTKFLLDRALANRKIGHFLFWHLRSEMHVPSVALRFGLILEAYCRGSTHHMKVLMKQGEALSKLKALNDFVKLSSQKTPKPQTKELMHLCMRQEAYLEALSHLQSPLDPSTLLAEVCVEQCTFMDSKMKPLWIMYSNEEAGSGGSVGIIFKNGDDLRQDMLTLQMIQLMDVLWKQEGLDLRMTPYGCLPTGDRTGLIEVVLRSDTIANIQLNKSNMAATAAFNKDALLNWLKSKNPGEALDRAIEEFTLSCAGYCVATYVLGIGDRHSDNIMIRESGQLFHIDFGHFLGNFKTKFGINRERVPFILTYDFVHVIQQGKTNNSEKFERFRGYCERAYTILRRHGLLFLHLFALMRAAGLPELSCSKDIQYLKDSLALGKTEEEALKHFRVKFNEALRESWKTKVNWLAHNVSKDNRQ
Chain of PIK3CA (human) (P42336 whole entry, looked up): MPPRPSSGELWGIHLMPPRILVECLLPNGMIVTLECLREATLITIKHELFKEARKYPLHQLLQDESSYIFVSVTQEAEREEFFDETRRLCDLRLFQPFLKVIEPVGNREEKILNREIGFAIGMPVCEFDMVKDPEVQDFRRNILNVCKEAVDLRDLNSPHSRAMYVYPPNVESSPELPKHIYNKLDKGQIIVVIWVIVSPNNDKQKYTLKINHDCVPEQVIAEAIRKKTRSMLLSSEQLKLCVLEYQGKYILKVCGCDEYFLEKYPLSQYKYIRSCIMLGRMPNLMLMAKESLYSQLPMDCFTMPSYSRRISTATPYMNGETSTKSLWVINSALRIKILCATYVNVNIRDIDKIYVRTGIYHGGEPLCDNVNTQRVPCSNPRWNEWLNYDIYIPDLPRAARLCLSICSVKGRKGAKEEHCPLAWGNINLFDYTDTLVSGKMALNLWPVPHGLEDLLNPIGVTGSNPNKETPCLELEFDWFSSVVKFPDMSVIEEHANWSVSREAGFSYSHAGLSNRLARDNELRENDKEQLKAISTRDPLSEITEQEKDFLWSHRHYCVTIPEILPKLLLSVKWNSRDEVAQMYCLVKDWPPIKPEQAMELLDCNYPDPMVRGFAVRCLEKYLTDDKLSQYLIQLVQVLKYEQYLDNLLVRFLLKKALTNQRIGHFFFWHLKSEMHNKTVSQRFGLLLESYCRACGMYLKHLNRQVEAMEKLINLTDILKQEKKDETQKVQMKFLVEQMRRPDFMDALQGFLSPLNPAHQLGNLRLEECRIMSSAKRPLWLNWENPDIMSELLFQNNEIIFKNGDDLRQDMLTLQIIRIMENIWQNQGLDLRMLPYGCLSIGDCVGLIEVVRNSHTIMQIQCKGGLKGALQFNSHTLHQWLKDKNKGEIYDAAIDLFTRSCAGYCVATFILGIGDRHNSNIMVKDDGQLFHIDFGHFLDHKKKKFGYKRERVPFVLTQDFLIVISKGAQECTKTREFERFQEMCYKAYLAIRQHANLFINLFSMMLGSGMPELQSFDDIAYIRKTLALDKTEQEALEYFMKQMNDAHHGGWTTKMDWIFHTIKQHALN
Chain of PIK3CG (human) (P48736 whole entry, looked up): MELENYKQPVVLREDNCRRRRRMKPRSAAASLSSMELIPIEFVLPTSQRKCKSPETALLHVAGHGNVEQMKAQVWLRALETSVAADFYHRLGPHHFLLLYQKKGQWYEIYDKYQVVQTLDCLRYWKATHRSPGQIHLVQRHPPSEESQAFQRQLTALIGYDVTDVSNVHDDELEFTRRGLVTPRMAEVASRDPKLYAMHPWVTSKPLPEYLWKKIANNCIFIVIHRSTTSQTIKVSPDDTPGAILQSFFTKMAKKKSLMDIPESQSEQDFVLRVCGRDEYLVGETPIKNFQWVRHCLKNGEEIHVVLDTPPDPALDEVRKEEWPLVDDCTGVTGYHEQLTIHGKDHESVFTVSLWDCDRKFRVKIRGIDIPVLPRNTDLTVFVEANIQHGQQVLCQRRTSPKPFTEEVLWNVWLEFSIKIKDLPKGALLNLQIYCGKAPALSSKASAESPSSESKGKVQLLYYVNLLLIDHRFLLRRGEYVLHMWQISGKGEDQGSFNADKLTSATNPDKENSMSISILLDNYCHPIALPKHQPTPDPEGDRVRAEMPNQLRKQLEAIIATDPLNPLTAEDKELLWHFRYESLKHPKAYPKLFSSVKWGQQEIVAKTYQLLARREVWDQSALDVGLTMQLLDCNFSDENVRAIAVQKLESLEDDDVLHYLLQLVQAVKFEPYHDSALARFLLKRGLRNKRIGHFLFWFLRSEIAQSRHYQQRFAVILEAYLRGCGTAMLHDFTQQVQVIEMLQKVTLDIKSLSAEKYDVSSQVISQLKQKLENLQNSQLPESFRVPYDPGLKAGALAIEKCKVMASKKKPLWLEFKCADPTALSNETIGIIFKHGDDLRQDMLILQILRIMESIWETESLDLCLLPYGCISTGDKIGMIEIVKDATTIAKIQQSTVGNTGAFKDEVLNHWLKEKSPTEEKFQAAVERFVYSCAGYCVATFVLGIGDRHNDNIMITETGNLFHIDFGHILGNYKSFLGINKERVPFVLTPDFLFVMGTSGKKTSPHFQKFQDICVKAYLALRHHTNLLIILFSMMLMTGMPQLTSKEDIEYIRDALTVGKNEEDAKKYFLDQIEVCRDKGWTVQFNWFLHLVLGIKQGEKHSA

One may read the pIC50 as the IC50 on a negative log10 scale, so that one unit is a factor of ten. Low readings indicate a large IC50, high ones a small IC50. As for `Cc1ncc(-c2cccc3nc([C@H](C)Nc4nc(N)ncc4C#N)n(-c4ccccc4)c(=O)c23)cn1`, the pIC50 against PIK3CB (Human) was less than 5.00; against PIK3CD (Human) it was greater than 7.00; at PIK3CA (human), less than 5.00; against PIK3CG (human), greater than 7.00.

Take `COc1cc(-c2cccc3cc([C@H](C)Nc4nc(N)ncc4-c4ccccc4)n(-c4ccccc4)c(=O)c23)ccn1`: the pIC50 was less than 5.00 against PIK3CB (Human), 6.00 to 7.00 on PIK3CD (Human), less than 5.00 against PIK3CA (human) and greater than 7.00 against PIK3CG (human).

Regarding `COc1cncc(-c2cccc3cc([C@H](C)Nc4nc(N)ncc4C#N)n(-c4ccccc4)c(=O)c23)n1`, the pIC50 against PIK3CB (Human) was less than 5.00; on PIK3CD (Human), greater than 7.00; against PIK3CA (human), less than 5.00; against PIK3CG (human), 6.00 to 7.00.

Turning to `Cc1cc(N[C@@H](C)c2cc3cccc(Cl)c3c(=O)n2-c2ccccc2)nc(N)n1`, the pIC50 on PIK3CB (Human), at PIK3CD (Human), against PIK3CA (human) and at PIK3CG (human) was less than 5.00 throughout.

Take `C[C@H](Nc1nc(N)ncc1C#N)c1cc2cccc(-c3cccc(O)n3)c2c(=O)n1-c1ccccc1`: the pIC50 at PIK3CB (Human) is less than 5.00; against PIK3CD (Human), greater than 7.00; against PIK3CA (human), less than 5.00; at PIK3CG (human) it was 6.00 to 7.00.

As to `CSc1ncc(-c2cnc(N)nc2N[C@@H](C)c2cc3cccc(Cl)c3c(=O)n2-c2ccccc2)s1`, the pIC50 at PIK3CB (Human) was 6.00 to 7.00; against PIK3CD (Human), greater than 7.00; against PIK3CA (human), 6.00 to 7.00; at PIK3CG (human), greater than 7.00.

On to `C[C@H](Nc1nc(N)ncc1C#N)c1cc2cccc(-c3cnc4[nH]ccc4c3)c2c(=O)n1-c1cccc(F)c1`, for which the pIC50 against PIK3CB (Human) was 6.00 to 7.00; on PIK3CD (Human), greater than 7.00; against PIK3CA (human), 6.00 to 7.00; against PIK3CG (human) it was greater than 7.00.

With `Cc1ccc(-c2cccc3cc([C@H](C)Nc4nc(N)ncc4C#N)n(-c4ccccc4)c(=O)c23)cc1`, the pIC50 on PIK3CB (Human) was 6.00 to 7.00; on PIK3CD (Human), greater than 7.00; at PIK3CA (human), 6.00 to 7.00; against PIK3CG (human), greater than 7.00.

Turning to `COc1cc(-c2cccc3cc([C@H](C)Nc4nc(N)nc(C)c4C#N)n(-c4ccccc4)c(=O)c23)ccn1`, the pIC50 against PIK3CB (Human) is 6.00 to 7.00; at PIK3CD (Human), greater than 7.00; against PIK3CA (human), greater than 7.00; on PIK3CG (human), greater than 7.00.

With `C[C@H](Nc1nc(N)ncc1NS(C)(=O)=O)c1cc2cccc(Cl)c2c(=O)n1-c1ccccc1`, the negative-log IC50 (pIC50) at PIK3CB (Human), at PIK3CD (Human), against PIK3CA (human) and against PIK3CG (human) was less than 5.00 in each case.

As to `C[C@H](Nc1nc(N)ncc1C#N)c1cc2cccc(-c3ccnc(O)c3)c2c(=O)n1-c1ccccc1`, the negative-log IC50 (pIC50) at PIK3CB (Human) was less than 5.00; on PIK3CD (Human), greater than 7.00; against PIK3CA (human), less than 5.00; against PIK3CG (human), greater than 7.00.

In the case of `COc1cncc(-c2cccc3cc([C@H](C)Nc4nc(N)ncc4C#N)n(C4CC4)c(=O)c23)c1`, the pIC50 was 6.00 to 7.00 against PIK3CB (Human), greater than 7.00 against PIK3CD (Human), 6.00 to 7.00 against PIK3CA (human) and greater than 7.00 against PIK3CG (human).

Take `COc1cc(-c2cccc3cc([C@H](C)Nc4nc(N)ncc4C(=O)N4CC(F)(F)C4)n(-c4ccccc4)c(=O)c23)ccn1`: the negative-log IC50 (pIC50) on PIK3CB (Human) was less than 5.00; against PIK3CD (Human) it was 6.00 to 7.00; against PIK3CA (human), less than 5.00; against PIK3CG (human), 6.00 to 7.00.

As to `C[C@H](Nc1nc(N)ncc1C#N)c1cc2cccc(-c3cnc4[nH]ccc4c3)c2c(=O)n1-c1ccccc1`, the negative-log IC50 (pIC50) is 6.00 to 7.00 at PIK3CB (Human), greater than 7.00 against PIK3CD (Human), 6.00 to 7.00 on PIK3CA (human) and greater than 7.00 against PIK3CG (human).

Regarding `C[C@H](Nc1nc(N)ncc1-c1cccnc1)c1cc2cccc(Cl)c2c(=O)n1-c1ccccc1`, the pIC50 was less than 5.00 at PIK3CB (Human), 6.00 to 7.00 on PIK3CD (Human), less than 5.00 at PIK3CA (human) and greater than 7.00 against PIK3CG (human).

On to `COc1cc(-c2cccc3cc([C@H](C)Nc4nc(N)ncc4-c4cc(O)cc(F)c4)n(-c4ccccc4)c(=O)c23)ccn1`, for which the pIC50 at PIK3CB (Human) was less than 5.00; against PIK3CD (Human), greater than 7.00; against PIK3CA (human), less than 5.00; at PIK3CG (human) it was 6.00 to 7.00.

For `COc1cc(-c2cccc3cc([C@H](C)Nc4nc(N)ncc4C(=O)N(C)C)n(-c4ccccc4)c(=O)c23)ccn1`, the pIC50 was less than 5.00 against PIK3CB (Human), greater than 7.00 on PIK3CD (Human), 6.00 to 7.00 at PIK3CA (human) and greater than 7.00 against PIK3CG (human).

`COc1ncc(-c2cccc3cc([C@H](C)Nc4nc(N)ncc4C(F)(F)F)n(-c4cccc(F)c4)c(=O)c23)cn1`: the pIC50 on PIK3CB (Human) is less than 5.00; against PIK3CD (Human), greater than 7.00; against PIK3CA (human), less than 5.00; on PIK3CG (human) it was 6.00 to 7.00.

On to `C[C@H](Nc1nc(N)ncc1C#N)c1cc2cccc(Cl)c2c(=O)n1C`, for which the negative-log IC50 (pIC50) on PIK3CB (Human) is 6.00 to 7.00; at PIK3CD (Human) it was 6.00 to 7.00; against PIK3CA (human), less than 5.00; at PIK3CG (human) it was 6.00 to 7.00.

Consider `COc1ncc(-c2cccc3cc([C@H](C)Nc4nc(N)ncc4C#N)n(-c4cccc(F)c4)c(=O)c23)cn1`, for which the pIC50 on PIK3CB (Human) was less than 5.00; on PIK3CD (Human), greater than 7.00; at PIK3CA (human), less than 5.00; against PIK3CG (human), greater than 7.00.

Take `COc1cc(-c2cccc3cc([C@H](C)Nc4nc(N)ncc4-c4ccc(F)c(O)c4)n(-c4ccccc4)c(=O)c23)ccn1`: the pIC50 against PIK3CB (Human) is less than 5.00; at PIK3CD (Human), greater than 7.00; at PIK3CA (human), less than 5.00; at PIK3CG (human), greater than 7.00.

Turning to `Cc1ncc(-c2cnc(N)nc2N[C@@H](C)c2cc3cccc(Cl)c3c(=O)n2-c2ccccc2)s1`, the pIC50 against PIK3CB (Human) is 6.00 to 7.00; at PIK3CD (Human), greater than 7.00; at PIK3CA (human) it was less than 5.00; against PIK3CG (human), greater than 7.00.

For `COc1cc(-c2cccc3cc([C@H](C)Nc4nc(N)ncc4C(=O)O)n(-c4ccccc4)c(=O)c23)ccn1`, the negative-log IC50 (pIC50) at PIK3CB (Human), against PIK3CD (Human), at PIK3CA (human) and at PIK3CG (human) was less than 5.00 each time.

On to `COc1ncc(-c2cccc3cc([C@H](C)Nc4nc(N)ncc4C(F)(F)F)n(-c4ccccc4)c(=O)c23)cn1`, for which the pIC50 against PIK3CB (Human) was less than 5.00; at PIK3CD (Human), greater than 7.00; on PIK3CA (human), less than 5.00; on PIK3CG (human), 6.00 to 7.00.

As for `COc1nc(-c2cnc(N)nc2N[C@@H](C)c2cc3cccc(Cl)c3c(=O)n2-c2ccccc2)cs1`, the negative logarithm of the IC50 (pIC50) is greater than 7.00 at PIK3CB (Human), greater than 7.00 against PIK3CD (Human), 6.00 to 7.00 at PIK3CA (human) and greater than 7.00 at PIK3CG (human).

Turning to `C[C@H](Nc1ncnc(Cl)c1[N+](=O)[O-])c1cc2cccc(Cl)c2c(=O)n1-c1ccccc1`, the pIC50 against PIK3CB (Human) was less than 5.00; against PIK3CD (Human), 6.00 to 7.00; on PIK3CA (human), less than 5.00; against PIK3CG (human), less than 5.00.

Take `COc1cc(-c2cccc3cc([C@H](C)Nc4nc(N)ncc4-c4ccc(O)c(F)c4)n(-c4ccccc4)c(=O)c23)ccn1`: the pIC50 against PIK3CB (Human) was less than 5.00; against PIK3CD (Human) it was greater than 7.00; at PIK3CA (human), less than 5.00; against PIK3CG (human) it was greater than 7.00.

For the molecule `COc1ncc(-c2cccc3cc([C@H](C)Nc4nc(N)ncc4C(N)=O)n(-c4ccccc4)c(=O)c23)cn1`, the pIC50 against PIK3CB (Human) was less than 5.00; against PIK3CD (Human) it was greater than 7.00; against PIK3CA (human), less than 5.00; against PIK3CG (human), greater than 7.00.

`CNC(=O)c1cnc(N)nc1N[C@@H](C)c1cc2cccc(-c3ccnc(OC)c3)c2c(=O)n1-c1ccccc1`: the pIC50 on PIK3CB (Human) is 6.00 to 7.00; against PIK3CD (Human), greater than 7.00; against PIK3CA (human), 6.00 to 7.00; at PIK3CG (human) it was greater than 7.00.
